Measurements from ChEMBL document CHEMBL1135412, “Synthesis and in vitro evaluation of quaternary ammonium derivatives of chlorambucil and melphalan, anticancer drugs designed for the chemotherapy of chondrosarcoma” (J Med Chem, 2002).

What was measured:
M4Beu cell line [1] = experiment: In vitro cytotoxic activity against M4 Beu cells, by colony forming assay; format: functional, cell-based; details: Homo sapiens
M4Beu cell line [2] = experiment: Comparative cellular uptake study performed on M4 Beu (melanoma cell line); format: functional, Homo sapiens
MCF7S [3] = experiment: In vitro cytotoxic activity against MCF7, by colony forming assay; format: functional, cell-based; details: Homo sapiens
[4] = Glutathione-s-transferase activity of the compound, expressed as percentage of control.; format: functional
[5] = In vitro cytotoxic activity against M4 Dau, by colony forming assay; format: functional
[6] = In vitro cytotoxicity in chondrosarcoma cell line (H-EMC-SS) by Hoechst 33342 DNA Fluorometric assay; format: functional; details: Homo sapiens
[7] = In vitro cytotoxicity in chondrosarcoma cell line (H-EMC-SS) by Alamar blue assay; format: functional; details: Homo sapiens
[8] = Comparative cellular uptake study performed on H-EMC-SS (chondrosarcoma cell line); format: functional, Homo sapiens
B16 [9] = experiment: In vitro cytotoxic activity against B16, by colony forming assay; format: functional, cell-based; details: Mus musculus
[10] = Partition coefficient (logD) (octanol/phosphate buffer); format: physicochemical
[11] = Alkylating activity of compound was determined by the NBP assay at 570 nm.; format: functional
B16 [12] = experiment: In vitro cytotoxicity activity against B16, by colony forming assay; format: functional, cell-based; details: Mus musculus
MCF7S [13] = experiment: In vitro cytotoxicity activity against MCF7, by colony forming assay; format: functional, cell-based; details: Homo sapiens
M4Beu cell line [14] = experiment: In vitro cytotoxicity activity against M4 Beu, by colony forming assay; format: functional, cell-based; details: Homo sapiens
[15] = In vitro cytotoxicity activity against M4 Dau, by colony forming assay; format: functional
B16 [16] = experiment: In vitro cytotoxicity activity against B16 cells, by colony forming assay; format: functional, cell-based; details: Mus musculus
[17] = In vitro cytotoxicity activity against M4 Dau by colony forming assay; format: functional
MCF7S [18] = experiment: In vitro cytotoxicity activity against MCF-7; format: functional, cell-based; details: Homo sapiens

Structure (SMILES)	IC50 (M4Beu cell line [1])	Cellular uptake (M4Beu cell line [2])	IC50 (MCF7S [3])	Glutathione-S-transferase activity (% of control) [4]	IC50 [5]	CC50 [6]	CC50 [7]	Cellular uptake [8]	IC50 (B16 [9])	logD [10]	Alkylating activity [11]	IC50 (B16 [12])	IC50 (MCF7S [13])	IC50 (M4Beu cell line [14])	IC50 [15]	logD ([10]; octanol/water)	IC50 (B16 [16])	IC50 [17]	IC50 (MCF7S [18])
C[N+](C)(C)CCCNC(=O)CCCc1ccc(N(CCCl)CCCl)cc1.[I-]	5.1 µM	16.7 pmol/µL	1.2 µM	55.4%	1.3 µM	0.6 µM	0.7 µM	2.97 pmol/µL	8.6 µM	0.32	40.4 10e3·k	–	–	–	–	–	–	–	–
C[N+](C)(C)CCCNC(=O)C(N)Cc1ccc(N(CCCl)CCCl)cc1.[Cl-] (centres undefined)	–	6.82 pmol/µL	–	79%	–	1.2 µM	1.8 µM	1.54 pmol/µL	–	-1.12	15.7 10e3·k	19.5 µM	0.9 µM	14.4 µM	3.3 µM	–	–	–	–
O=C(O)CCCc1ccc(N(CCCl)CCCl)cc1 [CHLORAMBUCIL]	5.1 µM	18.4 pmol/µL	1.7 µM	60.4%	–	2.7 µM	3.5 µM	2.73 pmol/µL	–	–	30.2 10e3·k	–	–	–	1.5 µM	0.75	5.1 µM	–	–
N[C@@H](Cc1ccc(N(CCCl)CCCl)cc1)C(=O)O [MELPHALAN]	–	21.9 pmol/µL	–	85.3%	–	0.9 µM	1.6 µM	2.88 pmol/µL	–	0.11	10.3 10e3·k	2.2 µM	–	1.2 µM	–	–	–	0.5 µM	0.3 µM
